In the NIST ThermoML archive (doi:10.1016/j.jct.2016.03.026):

Experiment: xn = mol fraction of the nth substance listed
Conditions: 313.15 K, Fluid (supercritical or subcritical phases), Vibrating tube method, x1 = 0.97

O=C=O [carbon dioxide] + CO
Conditions	mass density [kg/m3]
11150 kPa	721.68
11175 kPa	722.44
11200 kPa	723.12
11225 kPa	723.83
11250 kPa	724.5
11275 kPa	725.17
11300 kPa	725.87
11325 kPa	726.55
11350 kPa	727.24
11375 kPa	727.87
11400 kPa	728.58
11425 kPa	729.26
11450 kPa	729.89
11475 kPa	730.56
11500 kPa	731.23
11525 kPa	731.88
11550 kPa	732.54
11575 kPa	733.12
11600 kPa	733.75
11625 kPa	734.36
11650 kPa	734.97
11675 kPa	735.62
11700 kPa	736.24
11725 kPa	736.79
11750 kPa	737.41
11775 kPa	738.01
11800 kPa	738.59
11825 kPa	739.2
11850 kPa	739.81
11875 kPa	740.42
11900 kPa	741.01
11925 kPa	741.62
11950 kPa	742.23
11975 kPa	742.81
12000 kPa	743.38
12025 kPa	743.98
12050 kPa	744.51
12075 kPa	745.12
12100 kPa	745.65
12125 kPa	746.23
12150 kPa	746.78
12175 kPa	747.4
12200 kPa	747.95
12225 kPa	748.48
12250 kPa	749.04
12275 kPa	749.5
12300 kPa	750.05
12325 kPa	750.56
12350 kPa	751.14
12375 kPa	751.63
12400 kPa	752.14
12425 kPa	752.63
12450 kPa	753.18
12475 kPa	753.64
12500 kPa	754.12
12525 kPa	754.59
12550 kPa	755.09
12575 kPa	755.53
12600 kPa	756
12625 kPa	756.47
12650 kPa	756.92
12675 kPa	757.39
12700 kPa	757.86
12725 kPa	758.3
12750 kPa	758.68
12775 kPa	759.12
12800 kPa	759.54
12825 kPa	759.98
12850 kPa	760.36
12875 kPa	760.82
12900 kPa	761.3
12925 kPa	761.76
12950 kPa	762.23
12975 kPa	762.72
13000 kPa	763.15
13025 kPa	763.58
13050 kPa	764.07
13075 kPa	764.54
13100 kPa	764.93
13125 kPa	765.37
13150 kPa	765.86
13175 kPa	766.29
13200 kPa	766.75
13225 kPa	767.22
13250 kPa	767.6
13275 kPa	768.04
13300 kPa	768.47
13325 kPa	768.93
13350 kPa	769.37
13375 kPa	769.83
13400 kPa	770.23
13425 kPa	770.69
13450 kPa	771.07
13475 kPa	771.5
13500 kPa	771.93
13525 kPa	772.34
13550 kPa	772.7
13575 kPa	773.15
13600 kPa	773.57
13625 kPa	773.92
13650 kPa	774.36
13675 kPa	774.79
13700 kPa	775.16
13725 kPa	775.57
13750 kPa	776
13775 kPa	776.36
13800 kPa	776.72
13825 kPa	777.12
13850 kPa	777.52
13875 kPa	777.93
13900 kPa	778.33
13925 kPa	778.72
13950 kPa	779.11
13975 kPa	779.47
14000 kPa	779.85
14025 kPa	780.28
14050 kPa	780.67
14075 kPa	781.06
14100 kPa	781.44
14125 kPa	781.8
14150 kPa	782.18
14175 kPa	782.55
14200 kPa	782.93
14225 kPa	783.28
14250 kPa	783.65
14275 kPa	784.01
14300 kPa	784.39
14325 kPa	784.77
14350 kPa	785.15
14375 kPa	785.52
14400 kPa	785.88
14425 kPa	786.27
14450 kPa	786.66
14475 kPa	787.01
14500 kPa	787.34
14525 kPa	787.73
14550 kPa	788.05
14575 kPa	788.43
14600 kPa	788.78
14625 kPa	789.1
14650 kPa	789.51
14675 kPa	789.86
14700 kPa	790.23
14725 kPa	790.55
14750 kPa	790.91
14775 kPa	791.25
14800 kPa	791.65
14825 kPa	791.96
14850 kPa	792.31
14875 kPa	792.64
14900 kPa	793.03
14925 kPa	793.37
14950 kPa	793.74
14975 kPa	794.09
15000 kPa	794.4
15025 kPa	794.78
15050 kPa	795.16
15075 kPa	795.5
15100 kPa	795.8
15125 kPa	796.2
15150 kPa	796.56
15175 kPa	796.89
15200 kPa	797.19
15225 kPa	797.52
15250 kPa	797.89
15275 kPa	798.26
15300 kPa	798.53
15325 kPa	798.91
15350 kPa	799.22
15375 kPa	799.54
15400 kPa	799.88
15425 kPa	800.19
15450 kPa	800.53
15475 kPa	800.87
15500 kPa	801.17
15525 kPa	801.53
15550 kPa	801.84
15575 kPa	802.17
15600 kPa	802.47
15625 kPa	802.79
15650 kPa	803.12
15675 kPa	803.42
15700 kPa	803.73
15725 kPa	804.02
15750 kPa	804.34
15775 kPa	804.65
15800 kPa	804.99
15825 kPa	805.27
15850 kPa	805.58
15875 kPa	805.91
15900 kPa	806.23
15925 kPa	806.51
15950 kPa	806.83
15975 kPa	807.09
16000 kPa	807.41
16025 kPa	807.71
16050 kPa	807.98
16075 kPa	808.29
16100 kPa	808.61
16125 kPa	808.91
16150 kPa	809.2
16175 kPa	809.5
16200 kPa	809.79
16225 kPa	810.09
16250 kPa	810.39
16275 kPa	810.69
16300 kPa	810.98
16325 kPa	811.27
16350 kPa	811.55
16375 kPa	811.82
16400 kPa	812.11
16425 kPa	812.38
16450 kPa	812.66
16475 kPa	812.9
16500 kPa	813.24
16525 kPa	813.5
16550 kPa	813.76
16575 kPa	814.03
16600 kPa	814.33
16625 kPa	814.6
16650 kPa	814.87
16675 kPa	815.12
16700 kPa	815.43
16725 kPa	815.67
16750 kPa	815.94
16775 kPa	816.22
16800 kPa	816.46
16825 kPa	816.74
16850 kPa	817
16875 kPa	817.27
16900 kPa	817.54
16925 kPa	817.8
16950 kPa	818.05
16975 kPa	818.28
17000 kPa	818.55
17025 kPa	818.81
17050 kPa	819.06
17075 kPa	819.27
17100 kPa	819.55
17125 kPa	819.79
17150 kPa	820.09
17175 kPa	820.32
17200 kPa	820.54
17225 kPa	820.77
